US11840551B2, “Compositions and methods of modulating the immune response by activating alpha protein kinase 1” (Shanghai Yao Yuan Biotechnology Co., Ltd., priority 2017, dated 2023)

Assays:
ALPK1 [1] = target: T1, ALPK1 (Homo sapiens, UniProt Q96QP1); assay: IL-8 and TNFα mRNA expression in HEK293 cells with control or ALPK1-directed siRNA (qPCR); assay type: cell-based; set-up: silence ALPK1 expression in HEK293 cells; endogenous in cells; host or cells: HEK293; settings: control vs ALPK1-directed siRNA, 4 hours, HBP 500, 100, 20 uM, HMP-1bP 500, 100 uM, H1b-ADP 100, 20, 4, 0.8 nM
Description: To test whether HBP, HMP-1bP, and H1b-ADP were able to induce cytokine expression in an ALPK1 dependent manner, we used an ALPK1-directed small interfering RNA (siRNA) to silence ALPK1 expression in HEK293 cells. Cells were plated (1×10^4 cells/well) into 96-well plates and transfected with either control siRNA or ALPK1-directed siRNA according to the manufacturer's protocols (Lipofectamine™ RNAiMax™, Invitrogen 13778075). Following 2 days of culture, either (1) HBP (500 uM, 100 uM, 20 uM, FIG. 2A-2B) (2) HMP-1bP (500 uM, 100 uM, FIG. 3A-3B), (3) H1b-ADP (100 nM, 20 nM, 4 nM, 0.8 nM, FIG. 4A-4B) was added to culture medium and cells were harvested 4 hours later.

CT26 cells = assay: CT26 tumor xenograft model, tumor growth (tumor volume); assay type: in vivo, BALB/c mice
Description: We used a CT26 tumor xenograft model to test the anti-cancer activity of H1b-ADP. Tumor cells (2×10^5 per 100 uL CT26 cells) were inoculated subcutaneously into the right flank of BALB/c mice. At day 6, mice whose tumors had reached 3-5 mm in diameter were randomized and grouped into three groups (n=8 each group), control, HMP-1bP (580 ug), and H1b-ADP (1.2 ug). Injections were performed using a total volume of 20 uL at days 6, 8, 10, 12, and 14 post inoculation. Tumor volumes were calculated every 2 days from caliper measurements of tumor dimension using the formula (L×W^2)/2, where L is the longer measurement.
To test whether H1b-ADP could augment an anti-tumor response by a checkpoint inhibitor, we tested the effects of co-administration with an anti-PD1 antibody. Tumor cells (2×10^5 per 100 μL CT26 cells) were inoculated subcutaneously into the left and right flanks of BALB/c mice. At day 7, mice whose tumors had reached 5 mm in diameter were randomized and grouped (n=8 each group) into the following four groups: anti-PD1 antibody; rat IgG; H1b-ADP+rat IgG; H1b-ADP+anti-PD1 antibody. We utilized RMP1-14 as the anti-PD1 antibody (10 mg/kg) and a rat IgG 2a (2A3) as the control IgG. Each of the anti-PD-1 antibody and the control IgG was administered intraperitoneally in a 200 μL volume on days 6, 10, 12, and 17 post-inoculation. H1b-ADP (6.2 μg) was intratumorally injected in a 20 μL volume at day 6, 8, 10, 12, and 15. Tumor volumes were calculated every 2 days from caliper measurements of tumor dimensions using the formula (L×W^2)/2, where L is the longer measurement. The results are shown in FIG. 13A for injected tumors and FIG. 13B for distant tumors. […]
The experiment was carried out as combo experiments of anti-PD1 except for the following variations. At day 6, mice whose tumors had reached 5 mm in diameter were randomized and grouped into the following four groups: anti-CTLA-4 antibody; rat IgG; H1b-ADP+rat IgG; H1b-ADP+anti-CTLA-4 antibody. We utilized 9D9 (BioxCell) as the anti-CTLA-4 antibody and a rat IgG 2b isotype (MPC-11 clone, BE0086, BioXCell) as the control IgG. Each of the anti-CTLA-4 antibody (25 μg) and the control IgG (25 μg) was administered intraperitoneally in a 200 μL volume on days 6 and 9 post-inoculation. H1b-ADP (6.2 μg) was administered intratumorally in a 20 μL volume on days 6, 7, 9, 11 post-inoculation.
The experiment was carried out as combo experiments of anti-PD1 except for the following variations. At day 6, mice whose tumors had reached 5 mm in diameter were randomized and grouped into the following four groups: c-di-AM(PS)2; PBS; H1b-ADP; H1b-ADP+c-di-AM(PS)2. We utilized c-di-AM(PS)2 as the STING agonist. […]

ALPK1 [2] = target: T1, ALPK1; assay: Cell-free kinase assay of ALPK1 autophosphorylation (Western, anti-phospho-threonine); assay type: biochemical; settings: 2 nM ALPK1 with ATP, 25° C., 1 h; H1b-ADP 10, 1, 0.2 nM; HBP and HMP-1bP 1, 10, 100 nM
Description: ALPK1 activation results in its autophosphorylation. Accordingly, we next asked whether the binding of H1b-ADP to ALPK1 was sufficient to induce ALPK1 autophosphorylation. Phosphorylation assays were performed according to standard protocols. Briefly, ALPK1 was incubated (2 nM, 25° C., 1 h) in assay buffer (20 μl, 25 mM HEPES pH 7.5, 50 mM KCl, 0.1 mM EDTA, 0.1 mM EGTA, 2 mM DTT, 1.5 mM CaCl2, 10 mM MgCl2) with ATP and chemically synthesized HBP, HMP-1bP, or H1b-ADP followed by denaturing gel electrophoresis and Western analysis with an anti-phospho-threonine antibody (CST) to detect autophosphorylation of ALPK1. […] The range of concentrations of HBP and HMP-1bP used in this assay (1 nM, 10 nM, 100 nM) was 10-fold higher than that used for H1b-ADP.

T1 sequence (Q96QP1 whole entry): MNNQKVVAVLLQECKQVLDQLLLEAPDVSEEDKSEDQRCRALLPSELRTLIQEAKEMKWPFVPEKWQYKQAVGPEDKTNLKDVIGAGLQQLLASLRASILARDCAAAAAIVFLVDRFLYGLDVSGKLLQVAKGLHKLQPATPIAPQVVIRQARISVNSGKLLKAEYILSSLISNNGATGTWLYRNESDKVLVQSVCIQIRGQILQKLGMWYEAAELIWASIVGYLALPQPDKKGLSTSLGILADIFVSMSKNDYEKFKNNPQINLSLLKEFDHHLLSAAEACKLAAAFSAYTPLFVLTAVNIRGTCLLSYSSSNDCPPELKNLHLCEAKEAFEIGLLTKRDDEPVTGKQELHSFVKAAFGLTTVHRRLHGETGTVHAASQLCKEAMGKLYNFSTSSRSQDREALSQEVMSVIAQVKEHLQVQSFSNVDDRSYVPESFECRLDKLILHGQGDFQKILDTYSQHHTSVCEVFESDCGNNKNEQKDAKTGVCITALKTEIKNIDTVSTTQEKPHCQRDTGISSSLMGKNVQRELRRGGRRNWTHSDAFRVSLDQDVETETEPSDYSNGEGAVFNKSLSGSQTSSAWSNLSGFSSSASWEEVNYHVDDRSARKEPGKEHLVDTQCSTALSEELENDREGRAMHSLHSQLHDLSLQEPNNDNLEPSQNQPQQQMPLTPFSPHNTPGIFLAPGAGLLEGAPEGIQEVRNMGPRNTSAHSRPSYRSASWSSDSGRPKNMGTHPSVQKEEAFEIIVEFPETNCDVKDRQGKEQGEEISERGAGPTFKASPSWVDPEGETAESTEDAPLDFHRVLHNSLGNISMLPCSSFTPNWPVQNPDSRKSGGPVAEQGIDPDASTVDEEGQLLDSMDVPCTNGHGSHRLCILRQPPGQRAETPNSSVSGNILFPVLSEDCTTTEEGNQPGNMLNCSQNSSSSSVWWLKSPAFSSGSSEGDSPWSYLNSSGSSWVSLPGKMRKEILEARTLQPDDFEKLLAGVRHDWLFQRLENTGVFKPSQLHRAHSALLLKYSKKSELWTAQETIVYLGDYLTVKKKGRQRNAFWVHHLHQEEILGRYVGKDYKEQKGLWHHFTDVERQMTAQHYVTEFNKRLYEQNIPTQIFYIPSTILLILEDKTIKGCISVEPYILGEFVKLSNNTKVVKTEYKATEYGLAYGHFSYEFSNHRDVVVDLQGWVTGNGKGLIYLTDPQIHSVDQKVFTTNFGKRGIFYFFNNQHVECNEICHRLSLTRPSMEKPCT

Row | SMILES | IL-8 mRNA expression (ALPK1 [1]) | TNFα mRNA expression (ALPK1 [1]) | tumor growth (CT26 cells; Example 7, H1b-ADP 6.2 μg intratumoral, anti-PD1 antibody 10 mg/kg intraperitoneal, injected and distant tumors) | autophosphorylation of ALPK1 (ALPK1 [2]) | tumor growth (CT26 cells; intratumoral, days 6, 8, 10, 12, 14, HMP-1bP 580 ug, H1b-ADP 1.2 ug)
1 | Nc1ncnc2c1ncn2[C@@H]1O[C@H](COP(=O)(O)OP(=O)(O)O[C@@H]2O[C@H]([C@H](O)CO)[C@@H](O)[C@H](O)[C@@H]2O)[C@@H](O)[C@H]1O [Compound H1b-ADP, D-glycero-D-manno-heptose-1β-ADP] | increased in an ALPK1-dependent manner | increased in an ALPK1-dependent manner | markedly suppressed tumor growth | phosphorylation of ALPK1 was detected only in the presence of H1b-ADP | –
2 | O=P(O)(O)O[C@@H]1O[C@H]([C@H](O)CO)[C@@H](O)[C@H](O)[C@@H]1O [HMP-1bP, D-glycero-β-D-manno-heptose-1-phosphate] | increased in an ALPK1-dependent manner | increased in an ALPK1-dependent manner | – | not HBP or HMP-1bP induces ATP-dependent autophosphorylation | but not HMP-1bP, reduced tumor growth
